Test results reported in patent publication US20220096609A1 (priority 2019, published 2022).
“Also recorded” adds a separate entry of the source.

Assays:
[1] = system: mouse phrenic nerve hemi-diaphragm; parameters: species or system CD-1 mice
[2] = system: mouse phrenic nerve hemidiaphragm; parameters: species or system CD-1 mice

Structure (SMILES) | higher concentration of toxin required to induce an equivalent reduction in time for 90% paralysis as caused by DAP [1] [times] | muscle denervation compared with BoNT/E alone [1] | muscle tension response / neurotransmission [1] | onset of neuroparalysis [1] | reduction of the therapeutically effective amount of BoNT/E compared with BoNT/E administered alone [1] | time taken for 50% paralysis (TTP50) [1] | time taken for 90% paralysis (TTP90) [1] | uptake of BoNT/E [1] | faster BoNT/A onset (time required for 50% paralysis) [2] | increase of (initial) amplitude of muscle tension [2] | onset of paralysis compared with 30 pM BoNT/A in the absence of 4-AP [2]
Nc1ccncc1N [DAP, 3,4-diaminopyridine] | 6 | faster muscle denervation | elevated muscle tension response; also recorded: enhanced neurotransmission | faster onset of neuroparalysis | 25-600% | faster time | faster time | increased uptake | – | – | –
Nc1ccncc1 [4-AP, 4-aminopyridine] | – | – | – | – | – | – | – | – | approximately 25% | approximately 2.5 fold | progressed faster; also recorded: increased the onset of paralysis
